Where two headings read alike, the source gives them in different places.
Tests used:
NCI-H358 = assay: Tumor cell anti-proliferation assay (CTG assay), NCI-H358; type: cell-based; conditions: read-out: IC50 NCI-H358
Method: (§1) Assay 3: Tumor Cell Anti-Proliferation Assay (CTG Assay)
(§2) Tested tumor cell lines (MIA PaCa-2, NCI-H358, and A549) were seeded to the 96-well plate for overnight, then cells were treated with the test compound at 9 serially diluted concentrations in triplicate. After 3-days incubation with the test compound, the CTG assay was performed to evaluate the IC50. The 3 cell lines were tested in the same manner. Cisplatin were used as the positive control.
(§3) Day −1: Cell Plating for Cell Lines
(§4) 1. Adjust the cell concentration to the appropriated number with the medium, and for each well of a 96-well plate, add 90 μl cell suspensions (Cell concentration will be adjusted according to the data base or density optimization assay). 2. Incubate the plates for overnight in humidified incubator at […] with 5% CO2.
(§5) Day 0: T0 Plate Reading and Compound Treatment
(§6) 3. Add 10 μL culture medium to each well of plate A for T0 reading.
(§7) 4. Equilibrate the plate and its content at RT for approximately 30 min.
(§8) 5. Add 50 μL CellTiter-Glo® Reagent to each well for T0 reading.
(§9) 6. Mix contents for 2 minutes on an orbital shaker to facilitate cell lysis.
(§10) 7. Allow the plate to incubate at room temperature for 10 minutes to stabilize the luminescent signal. Note: Uneven luminescent signal within standard plates can be caused by temperature gradients, uneven seeding of cells or edge effects in multiwall plates.
(§11) 8. Place a black BackSeal sticker to the bottom of each plate.
(§12) 9. Record luminescence using an Envision Multi Label Reader.
(§13) 10. Dilute the test compound and the positive control (Cisplatin). Add 10 μL of 10× test compound working solutions into the corresponding wells. Incubate the test plates in the humidified incubator at 37° C. with 5% Co2.
(§14) Day 3: Plate Reading for 3-Day Assay
(§15) 11. Monitor under the microscope to make sure that the cells in control wells are healthy.
(§16) 12. After three days incubation, add 50 μL CellTiter-Glo® Reagent to each well.
(§17) 13. Mix contents for 2 minutes on an orbital shaker to facilitate cell lysis.
(§18) 14. Allow the plate to incubate at room temperature for 10 minutes to stabilize the luminescent signal.
(§19) 15. Note: Uneven luminescent signal within standard plates can be caused by temperature gradients, uneven seeding of cells or edge effects in multiwall plates.
(§20) 16. Place a black BackSeal sticker to the bottom of each plate.
(§21) 17. Record luminescence using an Envision Multi Label Reader.
(§22) In order to calculate IC50, a dose-response curve was fitted using nonlinear regression model with a sigmoidal dose response. The formula of the surviving rate is shown below, and the IC50 was automatically produced by GraphPad Prism 5.0.
(§23) The surviving rate […]=(LumTest compound−LumMedium control)/(LumNone treated-LumMedium control)×100%.
(§24) LumNone treated-LumMedium control is set as 100% o and LumMedium control is set as […]. T0 value will be presented as percentage of LumNone treated.

MIA PaCa-2 = assay: Tumor cell anti-proliferation assay (CTG assay), MIA PaCa-2; type: cell-based; conditions: read-out: IC50 MIA PaCa-2
Method: as §1, §2, §3, §4, §5, §6, §7, §8, §9, §10, §11, §12, §13, §14, §15, §16, §17, §18, §19, §20, §21, §22, §23, §24

KRAS G12C = KRAS G12C (Homo sapiens, UniProt P01116, G12C); assay: KRAS GDP FI assay; type: biochemical; conditions: kinetic reading Ex580/Em620 for 120 min
Text: Assay 2: KRAS GDP FI Assay
1. Prepare compound dilution plate.
2. Transfer Inhibitor/DMSO to assay plate by Echo.
3. Prepare 1× assay buffer.
4. Prepare KRAS G12C mix & SOS1 mix & GTP mix & detection reagent mix.
5. Add KRAS G12C mix, SOS1 mix, GTP mix.
6. Add detection reagent mix to assay plate.

[1] = MIA PaCa-2, 3-days incubation, CTG
[2] = Homo sapiens, MIA PaCa-2, 72 h, MIA PaCa-2, 3-days incubation, CTG
[3] = NCI-H358, 3-days incubation, CTG

IC50 (KRAS G12C) [µM]	IC50 (MIA PaCa-2; [2]) [µM]	Compound	other results
		C=CC(=O)N1C[C@H](C)N(c2nc(OC[C@@H]3CCCN3C)nc3c(=O)n(-c4cn(C)c5ccccc45)c(C(F)(F)F)nc23)[C@@H](C)C1 [Example 43]	IC50 (NCI-H358; Homo sapiens, NCI-H358, 72 h): 0.257 µM; IC50 (MIA PaCa-2; Homo sapiens, MIA PaCa-2, 72 h): 0.766 µM
0.083		C=CC(=O)N1CCN(c2nc(OC[C@@H]3CCCN3C)nc3c(=O)n(-c4cccc5cccc(Cl)c45)c(C(F)(F)F)nc23)C[C@@H]1CC#N (single isomer, unassigned) [Example 32-b]	IC50 (MIA PaCa-2; [1]): 0.188 µM
0.124	0.0727	C=CC(=O)N1CCN(c2nc(OC[C@@H]3CCCN3C)nc3c2CCCC(c2c(C)ccc4[nH]ncc24)C3)C[C@@H]1CC#N (stereo partly drawn) [Example 30, 2-((2S)-1-acryloyl-4-(8-(5-methyl-1H-indazol-4-yl)-2-(((S)-1-methylpyrrolidin-2-yl)methoxy)-6,7,8,9-tetrahydro-5H-cyclohepta[d]pyrimidin-4-yl)piperazin-2-yl)acetonitrile]	
0.178		C=CC(=O)N1CCN(c2nc(OC[C@@H]3CCCN3C)nc3c(=O)n(-c4cccc5cccc(F)c45)c(C(F)(F)F)nc23)C[C@@H]1CC#N [Example 37, 2-((S)-1-acryloyl-4-(7-(8-fluoronaphthalen-1-yl)-2-(((S)-1-methylpyrrolidin-2-yl)methoxy)-8-oxo-6-(trifluoromethyl)-7,8-dihydropyrimido[5,4-d]pyrimidin-4-yl)piperazin-2-yl) acetonitrile]	
		2-((S)-1-acryloyl-4-(7-(8-chloronaphthalen-1-yl)-2-(((2S,4R)-4-fluoro-1-methylpyrrolidin-2-yl) [Compound 25-a]	IC50 (MIA PaCa-2; [1]): > 0.01 µM
1.5		C=CC(=O)N1CCN(c2nc(OC[C@@H]3CCCN3C)nc3c(=O)n(-c4cccc5cccc(Cl)c45)c(C)nc23)[C@@H](C)C1 (single isomer, unassigned) [Compound 26-b]	IC50 (MIA PaCa-2; [1]): 2.89 µM
0.155		C=CC(=O)N1CCN(c2nc(OC[C@@H]3C[C@@H](F)CN3C)nc3c(=O)n(-c4cccc5cccc(Cl)c45)c(C(F)(F)F)nc23)[C@@H](C)C1 (single isomer, unassigned) [Example 36-a]	
0.9		C=CC(=O)N1CCN(c2nc(OC[C@@H]3CCCN3C)nc3c(=O)n(-c4cccc5cccc(Cl)c45)c(CC)nc23)[C@@H](C)C1 (single isomer, unassigned) [Compound 27-b]	IC50 (MIA PaCa-2; [1]): 2.69 µM
	2.89	C=CC(=O)N1CCN(c2nc(OC[C@@H]3CCCN3C)nc3c(=O)n(-c4cccc5cccc(Cl)c45)c(CC)nc23)[C@@H](C)C1 (single isomer, unassigned) [Compound 27-a]	
0.494		C=CC(=O)N1CCN(c2nc(OC[C@@H]3CCCN3C)nc3c(=O)n(-c4c(F)cccc4OC)c(C(F)(F)F)nc23)C[C@@H]1CC#N [Example 38, 2-((S)-1-acryloyl-4-(7-(2-fluoro-6-methoxyphenyl)-2-(((S)-1-methylpyrrolidin-2-yl)methoxy)-8-oxo-6-(trifluoromethyl)-7,8-dihydropyrimido[5,4-d]pyrimidin-4-yl)piperazin-2-yl)acetonitrile]	
0.19	1.5	C=CC(=O)N1C[C@H](C)N(c2nc(OC[C@@H]3CCCN3C)nc3c(=O)n(-c4cccc5cccc(Cl)c45)c(C)nc23)[C@@H](C)C1 [Compound 28, 8-((2S,6S)-4-acryloyl-2,6-dimethylpiperazin-1-yl)-3-(8-chloronaphthalen-1-yl)-2-methyl-6-(((S)-1-methylpyrrolidin-2-yl)methoxy)pyrimido[5,4-d]pyrimidin-4(3H)-one]	
		C=CC(=O)N1CCN(c2nc(OC[C@@H]3CCCN3C)nc3c(=O)n(-c4cccc5cccc(Cl)c45)c(C(F)(F)F)nc23)[C@@H](C)C1 (single isomer, unassigned) [Compound 24-a]	IC50 (NCI-H358; [3]): 0.407 µM
	4.38	C=CC(=O)N1CCN(c2nc(OC[C@@H]3CCCN3C)nc3c(=O)n(-c4cccc5cccc(Cl)c45)c(C)nc23)[C@@H](C)C1 (single isomer, unassigned) [Compound 26-a]	
0.132	0.48	C=CC(=O)N1CCN(c2nc(OC[C@@H]3CCCN3C)nc3c(=O)n(-c4cccc5cccc(Cl)c45)c(C(F)(F)F)nc23)[C@@H](C)C1 [Compound 24, 8-((S)-4-acryloyl-2-methylpiperazin-1-yl)-3-(8-chloronaphthalen-1-yl)-6-(((S)-1-methylpyrrolidin-2-yl)methoxy)-2-(trifluoromethyl)pyrimido[5,4-d] pyrimidin-4(3H)-one]	
0.364		C=CC(=O)N1CCN(c2nc(OC[C@@H]3CCCN3C)nc3c(=O)n(-c4cccc5cccc(C)c45)c(-c4ccccc4)nc23)C[C@@H]1CC#N [Example 39, 2-((S)-1-acryloyl-4-(7-(8-methylnaphthalen-1-yl)-2-(((S)-1-methylpyrrolidin-2-yl)methoxy)-8-oxo-6-phenyl-7,8-dihydropyrimido[5,4-d]pyrimidin-4-yl)piperazin-2-yl)acetonitrile]	
		C=CC(=O)N1CCN(c2nc(OC[C@@H]3CCCN3C)nc3c(=O)n(-c4cccc5cccc(Cl)c45)c(C(F)(F)F)nc23)[C@@H](C)C1 (single isomer, unassigned) [Compound 24-b]	IC50 (NCI-H358; [3]): 1.46 µM
0.037		2-((S)-1-acryloyl-4-(7-(8-chloronaphthalen-1-yl)-2-(((2S,4R)-4-fluoro-1-methylpyrrolidin-2-yl) [Compound 25-b]	IC50 (MIA PaCa-2; [1]): 1.12 µM
	3.72	C=CC(=O)N1CCN(c2nc(OC[C@@H]3CCCN3C)nc3c(=O)n(-c4cccc5cccc(Cl)c45)c(C(F)(F)F)nc23)C[C@@H]1CC#N (single isomer, unassigned) [Example 32-a]	
0.089		C=CC(=O)N1C[C@H](C)N(c2nc(OC[C@@H]3CCCN3C)nc3c(=O)n(-c4cccc5cccc(Cl)c45)c(C(F)(F)F)nc23)[C@@H](C)C1 (single isomer, unassigned) [Example 29-a]	IC50 (NCI-H358; [3]): 0.148 µM
0.405		C=CC(=O)N1CCN(c2nc(OC[C@@H]3CCCN3C)nc3c(=O)n(-c4ccccc4F)c(C(F)(F)F)nc23)[C@@H](C)C1 (single isomer, unassigned) [Example 40-b]	
